From US9283242B2, “Uses of dihydro bases” (priority 2013, dated 2016)

Columns and labels:
HK82SOS = experiment: CRAB lesion bypass assay, HK82SOS cells; type: cell-based, E. coli; conditions: percentage relative to unmodified control genome
Description: (§1) All E. coli strains used in this work contain the F′ episome, which enables infection by M13 phage. GW5100 strain was used for large scale preparation of M13 phage DNA, SCS 110 (JM110, end Al) was used for amplification of progeny phage post-electroporation, and NR9050 was the strain of choice for double agar plating with X-GAL for blue-clear detection of plaques. The E. coli strains used to replicate lesion-containing phage were HK81 (as AB1157, but nalA) and HK82 (as AB1157, but nalA alkB22; AlkB-deficient).
Lesion-containing genomes were mixed with the competitor genome (80:20 molar ratio) and electroporated in triplicate into 100 μl competent cells using a 2 mm-gap cuvette and a BTX electroporator set to 2.5 kV and 125 a Typical pulse lengths were 4.9 msec. The cells were immediately transferred to 10 ml LB and an aliquot was immediately plated using the agar overlay method to verify that a minimum of 10^5 independent initial electroporation events occurred in 10 ml of culture. Incubation for 6 h at 37° C. with aeration generated the progeny phage, which were then reamplified in SCS 110 cells (10 μl overnight culture and 100 μl of the 6 h supernatant in 10 ml LB) to dilute out the residual genomic DNA used for electroporation. Single-stranded M13 progeny phage DNA was isolated from 1.4 ml of supernatant using a Q1Aprep Spin M13 Kit with final DNA suspension in 100 μl elution buffer. CRAB forward and reverse primers were used to amplify the region of interest from 15 μl per Q1Aprep elution sample in a total volume of 25 μl containing 50 pmol of each primer, 1×Pfu Turbo buffer, 1.25 U Pfu Turbo DNA polymerase and […] of each dNTP. The PCR program used 30 cycles of 67° C. (1 min) annealing and 72° C. (1 min) extensions. […] The gels were visualized on a phosphorimager (Typhoon 7000, GE Healthcare Life Sciences); the band intensities were quantified using IMAGEJ software (National Institutes of Health). Lesion bypass was calculated as the percentage ratio of the intensity of the 18-mer band (lesion signal) to the intensity of the 21-mer band (competitor signal). […]

[1] = tested on: HK81 (AlkB+) E. coli cells; experiment: REAP mutagenesis assay, HK81 cells; type: cell-based; conditions: for Mutagenicity, Average % A / Mutagenicity, Average % G / Mutagenicity, Average % T: (c) HK81
Description: as §1
(§2) Lesion-containing genomes were mixed with the competitor genome (80:20 molar ratio) and electroporated in triplicate into 100 μl competent cells using a 2 mm-gap cuvette and a BTX electroporator set to 2.5 kV and 125 a Typical pulse lengths were 4.9 msec. The cells were immediately transferred to 10 ml LB and an aliquot was immediately plated using the agar overlay method to verify that a minimum of 10^5 independent initial electroporation events occurred in 10 ml of culture. Incubation for 6 h at 37° C. with aeration generated the progeny phage, which were then reamplified in SCS 110 cells (10 μl overnight culture and 100 μl of the 6 h supernatant in 10 ml LB) to dilute out the residual genomic DNA used for electroporation. Single-stranded M13 progeny phage DNA was isolated from 1.4 ml of supernatant using a Q1Aprep Spin M13 Kit with final DNA suspension in 100 μl elution buffer. CRAB forward and reverse primers were used to amplify the region of interest from 15 μl per Q1Aprep elution sample in a total volume of 25 μl containing 50 pmol of each primer, 1×Pfu Turbo buffer, 1.25 U Pfu Turbo DNA polymerase and […] of each dNTP. The PCR program used 30 cycles of 67° C. (1 min) annealing and 72° C. (1 min) extensions. After purification using QIAQUICK PCR purification columns, 4 μl of the PCR product were treated with BbsI (1.5 U) and SAP (0.3 U) in a total volume of 6 μl by incubating at 37° C. for 4 h. After phosphatase inactivation, (80° C. for 5 min), the 5′ ends were then radiolabeled using [γ-^32P]-ATP (1.66 pmol, 10 μCi/μl, 6000 Ci/mmol), cold ATP (16 pmol) and 5 U of OPTIKINASE at 37° C. for 30 min. Following the kinase inactivation at 65° C. for 20 min, the labeled product was then trimmed by HaeIII (10 U in a final volume of 10 μl) at 37° C. for 2 h, and diluted 1:1 in formamide loading dye. PAGE separation on a 20% denaturing gel, run for about 3.5 h at 550 V, until the xylene cyanol dye migrated 10.5 cm, yielded two bands for each sample: an 18-mer originating from the lesion-containing genome and a 21-mer originating from the competitor genome. The gels were visualized on a phosphorimager (Typhoon 7000, GE Healthcare Life Sciences); the band intensities were quantified using IMAGEJ software (National Institutes of Health). Lesion bypass was calculated as the percentage ratio of the intensity of the 18-mer band (lesion signal) to the intensity of the 21-mer band (competitor signal).
(§3) The REAP assay methodology is identical to the CRAB assay except for the PCR primers, which amplified only the progeny DNA originating from the lesion-carrying genomes. Following electrophoresis, the 18-mer bands were excised from the gel, crushed and extracted with 200 μl water. After desalting with SEPHADEX G-50 Fine resin spin columns, the samples were lyophilized to dryness, resuspended in 5 μl containing 1 μg P1 Nuclease in 30 mM sodium acetate (pH 5.3) and 10 mM zinc chloride, and incubated at 50° C. for 1 h. One μl of each sample was then spotted onto PEI-TLC plates and separated using 200 ml of a saturated solution of (NH4)2HPO4 adjusted to pH 5.8. After 24 h of development, the TLC plates were air-dried and quantified using phosphorimagery. […]

HK82-SOS = experiment: REAP mutagenesis assay, HK82-SOS cells; type: cell-based, E. coli; conditions: (b) HK82-SOS
Description: as §1, §2, §3

SMILES	Polymerase bypass efficiency, Avg. (HK82SOS)	Mutagenicity, Average % C [1]	Mutagenicity, Average % A [1]	Mutagenicity, Average % G [1]	Mutagenicity, Average % T [1]	Mutagenicity, Average % A (HK82-SOS)	Mutagenicity, Average % C (HK82-SOS)	Mutagenicity, Average % G (HK82-SOS)	Mutagenicity, Average % T (HK82-SOS)
NC1=NC(=O)N([C@H]2C[C@H](O)[C@@H](CO)O2)CN1 [KP1212, 5-aza-5,6-dihydro-2′-deoxycytidine]	124%	90.2%	0.2%	0.1%	9.5%	0.1%	89.4%	0.2%	10.3%
Nc1ccn([C@H]2C[C@H](O)[C@@H](CO)O2)c(=O)n1 [dC, deoxycytidine]	100%	99.9%	0.1%	0.0%	0.0%	0.1%	–	0.0%	0.0%
